{
  "source": "patent US6718687B2",
  "about": "(priority 2002, dated 2004)",
  "origin": "cited, not measured here",
  "tested_on": "mosquitoes",
  "data": [
    {"smiles": "C=CC(O)CCCCC", "note": "(centres unmarked) [Octenol, 1-octen-3-oL]", "values": [
      {"measurement": "results from traps baited with Octenol and CO2 compared with CO2 alone", "setting": "Octenol and CO2 versus CO2 alone", "result": "not significant"},
      {"measurement": "effectiveness as attractant for mosquitoes", "setting": "Octenol at the release rate tested, unless CO2 was also used", "result": "not an effective attractant"}
    ]}
  ]
}
